The target in the experiment is T1, mouse GnRH receptor (Mus musculus, UniProt Q01776).
T1 construct: expressed in transfected cells; host or cells: 293 cells
T1 sequence (Q01776 1-327): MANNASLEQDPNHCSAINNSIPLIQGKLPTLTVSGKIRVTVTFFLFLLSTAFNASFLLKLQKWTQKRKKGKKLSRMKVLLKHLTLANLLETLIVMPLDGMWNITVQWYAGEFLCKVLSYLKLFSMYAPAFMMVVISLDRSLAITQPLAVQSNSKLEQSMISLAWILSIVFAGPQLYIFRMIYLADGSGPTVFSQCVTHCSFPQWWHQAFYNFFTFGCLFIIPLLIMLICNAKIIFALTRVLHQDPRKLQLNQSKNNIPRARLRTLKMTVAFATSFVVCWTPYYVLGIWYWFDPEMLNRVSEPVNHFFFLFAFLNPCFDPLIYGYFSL
In words: Radioligand binding, 125I-GnRH-A, 293 cells expressing mouse GnRH receptors. The settings on record: 1 h, substrate remaining; 10 uM compound; closer to zero = closer to 100% inhibition; read-out: S%R 10 uM mGnRHR. The essentials:
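Bound label captured on 0.1% polyethyleneimine-treated GF/C filters, washed three times with PBS, counted. IC50 derived; identical set-up for every species.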
For `Cc1cc2c(cc1Cc1ccc(C(=O)NC(C)c3ccccc3)o1)C(C)(C)CCC2(C)C` (centres unmarked) [Compound 616], the remaining activity at 10 µM was 29%.

On to `Cc1cc2c(cc1Cc1ccc(C(=O)NCCCCCCO)o1)C(C)(C)CCC2(C)C` [Compound 617], for which the remaining activity at 10 µM is -2%. As for `Cc1cc2c(cc1Cc1ccc(C(=O)N(Cc3ccoc3)C3CCN(Cc4ccccc4)C3)o1)C(C)(C)CCC2(C)C` (centres unmarked) [Compound 618], the figure is 9%; as for `Cc1cc2c(cc1Cc1ccc(C(=O)N(C)CCC3OCCO3)o1)C(C)(C)CCC2(C)C` [Compound 619], 5%; as for `Cc1cc2c(cc1Cc1ccc(C(=O)NCC(C)(C)CN(C)C)o1)C(C)(C)CCC2(C)C` [Compound 620], 3%.

For the compound `Cc1cc2c(cc1Cc1ccc(C(=O)N3CCCC3C(=O)NC(c3ccccc3)c3ccccc3)o1)C(C)(C)CCC2(C)C` (centres unmarked) [Compound 621], the remaining activity at 10 µM stood at 43%. Then `Cc1cc2c(cc1Cc1ccc(C(=O)NCCc3ccc(Oc4ccccc4)cc3)o1)C(C)(C)CCC2(C)C` [Compound 622], with 43%; and `Cc1cc2c(cc1Cc1ccc(C(=O)N(Cc3cccn3C)C3CCN(Cc4ccccc4)C3)o1)C(C)(C)CCC2(C)C` (centres unmarked) [Compound 623], with 2%. Take `C=C(C)CNC(=O)c1ccc(Cc2cc3c(cc2C)C(C)(C)CCC3(C)C)o1` [Compound 624]: the remaining activity at 10 µM is 8%. Then `Cc1cc2c(cc1Cc1ccc(C(=O)NC(C)CN(C)C)o1)C(C)(C)CCC2(C)C` (centres unmarked) [Compound 625], with 8%; and `Cc1cc2c(cc1Cc1ccc(C(=O)NC3CCS(=O)(=O)C3)o1)C(C)(C)CCC2(C)C` (centres unmarked) [Compound 626], with 10%. On to `Cc1cc2c(cc1Cc1ccc(C(=O)NCCCCCCN(C)C)o1)C(C)(C)CCC2(C)C` [Compound 627], for which the remaining activity at 10 µM is -6%.

For the compound `CCOC(=O)N1CCN(C(=O)c2ccc(Cc3cc4c(cc3C)C(C)(C)CCC4(C)C)o2)CC1` [Compound 628], the remaining activity at 10 µM came to 35%.

Consider `Cc1cc2c(cc1Cc1ccc(C(=O)N(Cc3ccccc3)C(C)C)o1)C(C)(C)CCC2(C)C` [Compound 629], for which the remaining activity at 10 µM came to 17%. Then `Cc1cc2c(cc1Cc1ccc(C(=O)N(CCC(c3ccccc3)c3ccccc3)Cc3ccco3)o1)C(C)(C)CCC2(C)C` [Compound 630], with 58%.

On to `Cc1cc2c(cc1Cc1ccc(C(=O)N(Cc3cccc4ccccc34)C3CCN(Cc4ccccc4)C3)o1)C(C)(C)CCC2(C)C` (centres unmarked) [Compound 631], for which the remaining activity at 10 µM came to 43%. As for `Cc1cc2c(cc1Cc1ccc(C(=O)NCCc3ccc(F)cc3)o1)C(C)(C)CCC2(C)C` [Compound 632], the figure is 21%. Then `Cc1cc2c(cc1Cc1ccc(C(=O)NC(C)(C)CO)o1)C(C)(C)CCC2(C)C` [Compound 633], with 10%. Turning to `Cc1cc2c(cc1Cc1ccc(C(=O)N3CCC4(C)CC(C)(C)CC45CC35)o1)C(C)(C)CCC2(C)C` (centres unmarked) [Compound 634], the remaining activity at 10 µM was found to be 1%. As for `Cc1cccc(N2CCN(C(=O)c3ccc(Cc4cc5c(cc4C)C(C)(C)CCC5(C)C)o3)CC2C)c1` (centres unmarked) [Compound 635], the figure is 27%; as for `Cc1cc2c(cc1Cc1ccc(C(=O)N(C)CCC#N)o1)C(C)(C)CCC2(C)C` [Compound 636], 17%; as for `Cc1cc2c(cc1Cc1ccc(C(=O)N(Cc3ccccc3)[C@@H](C)c3ccccc3)o1)C(C)(C)CCC2(C)C` [Compound 637], 55%. As to `Cc1cc2c(cc1Cc1ccc(C(=O)N(Cc3ccc(C(C)C)cc3)C3CCN(Cc4ccccc4)C3)o1)C(C)(C)CCC2(C)C` (centres unmarked) [Compound 638], the remaining activity at 10 µM was found to be 53%. Regarding `Cc1cc2c(cc1Cc1ccc(C(=O)NC(C)c3ccc([N+](=O)[O-])cc3)o1)C(C)(C)CCC2(C)C` (centres unmarked) [Compound 639], the remaining activity at 10 µM came to 57%. As for `CSCCCNC(=O)c1ccc(Cc2cc3c(cc2C)C(C)(C)CCC3(C)C)o1` [Compound 640], the figure is 2%. As to `Cc1cc2c(cc1Cc1ccc(C(=O)N3CCC(O)CC3)o1)C(C)(C)CCC2(C)C` [Compound 641], the remaining activity at 10 µM worked out at 23%. As for `Cc1cc2c(cc1Cc1ccc(C(=O)NCCc3ccc(Cl)cc3)o1)C(C)(C)CCC2(C)C` [Compound 642], the figure is 19%; as for `COc1ccc(CCNC(=O)c2ccc(Cc3cc4c(cc3C)C(C)(C)CCC4(C)C)o2)cc1Br` [Compound 643], 23%; as for `CCN(Cc1ccc(C)cc1)C(=O)c1ccc(Cc2cc3c(cc2C)C(C)(C)CCC3(C)C)o1` [Compound 644], 22%. As for `Cc1cc2c(cc1Cc1ccc(C(=O)N(CCC(c3ccccc3)c3ccccc3)Cc3ccccn3)o1)C(C)(C)CCC2(C)C` [Compound 645], the figure is 51%. As for `CCN1CC(N(Cc2ccccc2C#N)C(=O)c2ccc(Cc3cc4c(cc3C)C(C)(C)CCC4(C)C)o2)CN1CC` [Compound 646], the figure is 0%; as for `COc1cc(OC)cc(N2CCN(C(=O)c3ccc(Cc4cc5c(cc4C)C(C)(C)CCC5(C)C)o3)CC2)c1` [Compound 647], 35%; as for `CSCCNC(=O)c1ccc(Cc2cc3c(cc2C)C(C)(C)CCC3(C)C)o1` [Compound 648], 4%. As to `Cc1cc2c(cc1Cc1ccc(C(=O)N3CCC4(CC3)C(=O)NCN4c3ccccc3)o1)C(C)(C)CCC2(C)C` [Compound 649], the remaining activity at 10 µM is 28%. As for `Cc1cc2c(cc1Cc1ccc(C(=O)NC3CCCCC3O)o1)C(C)(C)CCC2(C)C` (centres unmarked) [Compound 650], the figure is 4%; as for `Cc1cc2c(cc1Cc1ccc(C(=O)N3CCCC3C(=O)OCc3ccccc3)o1)C(C)(C)CCC2(C)C` (centres unmarked) [Compound 651], 15%; as for `Cc1cc2c(cc1Cc1ccc(C(=O)N3CCC(NC(=O)OC(C)(C)C)C3)o1)C(C)(C)CCC2(C)C` (centres unmarked) [Compound 652], 19%. As for `CCN1CC(N(Cc2ccc(N(C)C)cc2)C(=O)c2ccc(Cc3cc4c(cc3C)C(C)(C)CCC4(C)C)o2)CN1CC` [Compound 653], the figure is 6%; as for `Cc1cc2c(cc1Cc1ccc(C(=O)NC(C)(C)CC(C)(C)C)o1)C(C)(C)CCC2(C)C` [Compound 654], 34%. Then `CCSCCNC(=O)c1ccc(Cc2cc3c(cc2C)C(C)(C)CCC3(C)C)o1` [Compound 655], with 2%. For `Cc1cc2c(cc1Cc1ccc(C(=O)N3CCC(O)(c4ccc(Br)cc4)CC3)o1)C(C)(C)CCC2(C)C` [Compound 656], the remaining activity at 10 µM was 52%.

Consider `Cc1cc2c(cc1Cc1ccc(C(=O)N3CCCC(C)(C)C3)o1)C(C)(C)CCC2(C)C` [Compound 657], for which the remaining activity at 10 µM stood at 3%. As for `Cc1cc2c(cc1Cc1ccc(C(=O)N3CCN(Cc4ccc(C(C)(C)C)cc4)CC3)o1)C(C)(C)CCC2(C)C` [Compound 658], the figure is 35%; as for `Cc1cc2c(cc1Cc1ccc(C(=O)N3CCCC3C)o1)C(C)(C)CCC2(C)C` (centres unmarked) [Compound 659], -2%. Then `CCN1CC(N(CCC(C)CCCC(C)(C)O)C(=O)c2ccc(Cc3cc4c(cc3C)C(C)(C)CCC4(C)C)o2)CN1CC` (centres unmarked) [Compound 660], with -4%; and `Cc1cc2c(cc1Cc1ccc(C(=O)N3CCC(NC(=O)C(F)(F)F)C3)o1)C(C)(C)CCC2(C)C` (centres unmarked) [Compound 661], with 41%; and `COC(OC)C(C)NC(=O)c1ccc(Cc2cc3c(cc2C)C(C)(C)CCC3(C)C)o1` (centres unmarked) [Compound 662], with 3%. Then `COc1cccc(N2CCN(C(=O)c3ccc(Cc4cc5c(cc4C)C(C)(C)CCC5(C)C)o3)CC2C)c1` (centres unmarked) [Compound 663], with 25%; and `CCN(C(=O)c1ccc(Cc2cc3c(cc2C)C(C)(C)CCC3(C)C)o1)C1CCCCC1` [Compound 664], with 1%; and `Cc1cc2c(cc1Cc1ccc(C(=O)N(Cc3cccnc3)Cc3ccco3)o1)C(C)(C)CCC2(C)C` [Compound 665], with 12%.

Turning to `CCC(CC)NC(=O)c1ccc(Cc2cc3c(cc2C)C(C)(C)CCC3(C)C)o1` [Compound 666], the remaining activity at 10 µM turned out to be 24%.

For `Cc1cc2c(cc1Cc1ccc(C(=O)N(CCc3ccccc3)Cc3ccoc3)o1)C(C)(C)CCC2(C)C` [Compound 667], the remaining activity at 10 µM amounted to 39%.

`CCN1CC(N(CCC(C)c2ccccc2)C(=O)c2ccc(Cc3cc4c(cc3C)C(C)(C)CCC4(C)C)o2)CN1CC` (centres unmarked) [Compound 668]: the remaining activity at 10 µM turned out to be 6%. As for `CCCOCCNC(=O)c1ccc(Cc2cc3c(cc2C)C(C)(C)CCC3(C)C)o1` [Compound 669], the figure is -3%. Then `Cc1cc2c(cc1Cc1ccc(C(=O)N3CCC(n4c(=O)[nH]c5ccccc54)CC3)o1)C(C)(C)CCC2(C)C` [Compound 670], with 16%. Then `Cc1cc2c(cc1Cc1ccc(C(=O)NCCC(C)O)o1)C(C)(C)CCC2(C)C` (centres unmarked) [Compound 671], with 12%; and `Cc1cc2c(cc1Cc1ccc(C(=O)N(CCC#N)CCC#N)o1)C(C)(C)CCC2(C)C` [Compound 672], with 23%; and `CCCC(CO)NC(=O)c1ccc(Cc2cc3c(cc2C)C(C)(C)CCC3(C)C)o1` (centres unmarked) [Compound 673], with 2%.

In the case of `COc1ccccc1CN(C(=O)c1ccc(Cc2cc3c(cc2C)C(C)(C)CCC3(C)C)o1)C1CCN(Cc2ccccc2)C1` (centres unmarked) [Compound 674], the remaining activity at 10 µM came out at 10%.

The record behind these values is patent US7101878B1 (Agouron Pharmaceuticals, Inc., priority 1998, dated 2006).
